Columns and labels:
Assay in all cases: Ba/F3 cell viability, Cell Titer Glo
EGFR L858R T790M L718V = EGFR L858R T790M L718V (Homo sapiens, UniProt P00533, L718V/L858R/T790M); conditions: read-out: IC50 Values; Ba/F3 cells expressing EGFR L858R T790M L718V, 72 hours
Procedure: (§1) Cell viability was determined by the Cell Titer Glo assay.
(§2) Briefly, stable Ba/F3 cell lines were generated by retroviral transduction of Ba/F3 cell line for 12 hours. […] Three days after transduction, 2 μg/ml puromycin (Invitrogen) was added to the RPMI media. Cell lines were then grown in the absence of IL-3 for two weeks and cell viability was assessed every three days using the Cell Titer Glo assay (Progema).
(§3) Briefly, 2000-3000 cells per well were plated in 384-well plates (Greiner Bio-One) in technical triplicate. Cells were treated with seven different concentrations of tyrosine kinase inhibitors or vehicle alone at a final volume of 40 μL per well. After 3 days, 11 μL of Cell Titer Glo was added to each well. Plates were shaken for 15 minutes, and bioluminescence was determined using a FLUOstar OPTIMA multi-mode micro-plate reader (BMG LABTECH). Bioluminescence values were normalized to DMSO treated cells, and normalized values were plotted in GraphPad Prism using non-linear regression fit to normalized data with a variable slope.

EGFR L858R T790M V843I = EGFR L858R T790M V843I (Homo sapiens, UniProt P00533, L858R/T790M/V843I); conditions: read-out: IC50 Values; Ba/F3 cells expressing EGFR L858R T790M V843I, 72 hours
Procedure: as §1, §2, §3

EGFR L718V = EGFR L718V (Homo sapiens, UniProt P00533, L718V); conditions: read-out: IC50 Values; Ba/F3 cells expressing EGFR L718V, 72 hours
Procedure: as §1, §2, §3

EGFR L718Q = EGFR L718Q (Homo sapiens, UniProt P00533, L718Q); conditions: read-out: IC50 Values; Ba/F3 cells expressing EGFR L718Q, 72 hours
Procedure: as §1, §2, §3

EGFR G724S = EGFR G724S (Homo sapiens, UniProt P00533, G724S); conditions: read-out: IC50 Values; Ba/F3 cells expressing EGFR G724S, 72 hours
Procedure: as §1, §2, §3

EGFR L747P = EGFR L747P (Homo sapiens, UniProt P00533, L747P); conditions: read-out: IC50 Values; Ba/F3 cells expressing EGFR L747P, 72 hours
Procedure: as §1, §2, §3

EGFR Ex19del T790M C797S = EGFR Ex19del T790M C797S (Homo sapiens, UniProt P00533, C797S/DEL746-750/T790M); conditions: read-out: IC50 Values; Ba/F3 cells expressing EGFR Ex19del T790M C797S, 72 hours
Procedure: as §1, §2, §3

EGFR G719A L861Q = EGFR G719A L861Q (Homo sapiens, UniProt P00533, G719A/L861Q); conditions: read-out: IC50 Values; Ba/F3 cells expressing EGFR G719A L861Q, 72 hours
Procedure: as §1, §2, §3

EGFR E709K = EGFR E709K (Homo sapiens, UniProt P00533, E709K); conditions: read-out: IC50 Values; Ba/F3 cells expressing EGFR E709K, 72 hours
Procedure: as §1, §2, §3

EGFR K757R = EGFR K757R (Homo sapiens, UniProt P00533, K757R); conditions: read-out: IC50 Values; Ba/F3 cells expressing EGFR K757R, 72 hours
Procedure: as §1, §2, §3

EGFR L858R/L718V = EGFR L858R/L718V (Homo sapiens, UniProt P00533, L718V/L858R); conditions: read-out: IC50 Values; Ba/F3 cells expressing EGFR L858R/L718V, 72 hours
Procedure: (§4) The transforming capability of the mutations was then evaluated by sustained cell viability following IL-3 deprivation. Activating EGFR mutant Ba/F3 cells were then screened against EGFR TKIs. Cell viability was determined by the Cell Titer Glo assay.
(§5) Ba/F3 cells expressing acquired atypical mutations spanning exons 18-21 were treated with inhibitors for 72 hours. […] Briefly, stable Ba/F3 cell lines were generated by retroviral transduction of Ba/F3 cell line for 12 hours. […] Three days after transduction, 2 μg/ml puromycin (Invitrogen) was added to the RPMI media. Cell lines were then grown in the absence of IL-3 for two weeks and cell viability was assessed every three days using the Cell Titer Glo assay (Progema).
as §3

EGFR T725M = EGFR T725M (Homo sapiens, UniProt P00533, T725M); conditions: read-out: IC50 Values; Ba/F3 cells expressing EGFR T725M, 72 hours
Procedure: as §1, §2, §3

EGFR L718Q T790M = EGFR L718Q T790M (Homo sapiens, UniProt P00533, L718Q/T790M); conditions: read-out: IC50 Values; Ba/F3 cells expressing EGFR L718Q T790M, 72 hours
Procedure: as §1, §2, §3

EGFR R776C = EGFR R776C (Homo sapiens, UniProt P00533, R776C); conditions: read-out: IC50 Values; Ba/F3 cells expressing EGFR R776C, 72 hours
Procedure: as §1, §2, §3

EGFR E709AG719S = EGFR E709AG719S (Homo sapiens, UniProt P00533, E709A/G719S); conditions: read-out: IC50 Values; Ba/F3 cells expressing EGFR E709AG719S, 72 hours
Procedure: as §1, §2, §3

EGFR L858R L718Q = EGFR L858R L718Q (Homo sapiens, UniProt P00533, L718Q/L858R); conditions: read-out: IC50 Values; Ba/F3 cells expressing EGFR L858R L718Q, 72 hours
Procedure: as §4, §5, §3

EGFR G719A T790M = EGFR G719A T790M (Homo sapiens, UniProt P00533, G719A/T790M); conditions: read-out: IC50 Values; Ba/F3 cells expressing EGFR G719A T790M, 72 hours
Procedure: as §1, §3

EGFR Ex19del G724S = EGFR Ex19del G724S (Homo sapiens, UniProt P00533, DEL746-750/G724S); conditions: read-out: IC50 Values; Ba/F3 cells expressing EGFR Ex19del G724S, 72 hours
Procedure: as §4, §5, §3

EGFR Ex19del L718Q = EGFR Ex19del L718Q (Homo sapiens, UniProt P00533, DEL746-750/L718Q); conditions: read-out: IC50 Values; Ba/F3 cells expressing EGFR Ex19del L718Q, 72 hours
Procedure: as §4, §5, §3

EGFR Ex19del/T790M/L792H = EGFR Ex19del/T790M/L792H (Homo sapiens, UniProt P00533, DEL746-750/L792H/T790M); conditions: read-out: IC50 Values; Ba/F3 cells expressing EGFR Ex19del/T790M/L792H, 72 hours
Procedure: as §1, §2, §3

Compound: C=CC(=O)N1CC[C@@H](Oc2nc(Nc3ccc(N4CCC(N5CCN(C)CC5)CC4)cc3)c(C(N)=O)nc2CC)C1 [Naquotinib]
- IC50 (EGFR L858R T790M L718V): 4.03 nM
- IC50 (EGFR L858R T790M V843I): 2.05 nM
- IC50 (EGFR L718V): 78.4 nM
- IC50 (EGFR L718Q): 734 nM
- IC50 (EGFR G724S): 58.1 nM
- IC50 (EGFR L747P): 472 nM
- IC50 (EGFR Ex19del T790M C797S): 1970 nM
- IC50 (EGFR G719A L861Q): 4.22 nM
- IC50 (EGFR E709K): 359 nM
- IC50 (EGFR K757R): 122 nM
- IC50 (EGFR L858R/L718V): 18.8 nM
- IC50 (EGFR T725M): 77.6 nM
- IC50 (EGFR L718Q T790M): 212 nM
- IC50 (EGFR R776C): 575 nM
- IC50 (EGFR E709AG719S): 48.1 nM
- IC50 (EGFR L858R L718Q): 747 nM
- IC50 (EGFR G719A T790M): 11.7 nM
- IC50 (EGFR Ex19del G724S): 697 nM
- IC50 (EGFR Ex19del L718Q): 2.64 nM
- IC50 (EGFR Ex19del/T790M/L792H): 4.75 nM

— patent US20260240847A1, “COMPOUNDS WITH ANTI-TUMOR ACTIVITY AGAINST CANCER CELLS BEARING TYROSINE KINASE INHIBITOR RESISTANT EGFR MUTATIONS” (BOARD OF REGENTS, THE UNIVERSITY OF TEXAS SYSTEM, priority 2019, published 2026)
